One compound from patent US6908733B2, “Diagnosis and treatment of human kidney diseases” (Shiva Biomedical, LLC, priority 1999, dated 2005) can be followed below.

Molecules are shown by their SMILES. “And” between values parts separate entries of the source, which are not always exact repeats. Identical values can stand only once. “Also recorded” adds a separate entry of the source.

Assay [1] deals with patients with kidney disease. Description: Serum creatinine in patients with kidney disease before and after treatment with an iron chelator. The format is in vivo, human. The procedure:
Creatinine clearance was calculated by the standard formula Cr=Ucr V/PCr where Cr=clearance of creatinine (ml/min); Ucr=urine creatinine (mg/dl), V=volume of urine, and PCr=plasma creatinine (mg/dl).
(§1) The diagnosis of the kidney disease was made by performing a kidney biopsy and included patients with membranoproliferative glomerulonephritis, membranous nephropathy, focal segmental sclerosis, IgA nephropathy, and diabetes as described above.
(§2) Patients with kidney disease who had abnormally high urinary protein were treated with the iron chelator deferiprone (1,2-dimethyl-3-hydroxypyrid-4-one) (L1). Deferiprone was synthesized as previously described capsule (Kontoghiorghes A. J., et al., Inorganica Chimica Acta 136:L11-L12 (1987), the teachings of which are hereby incorporated by reference in it entirety) and formulated into capsules containing 500 mg of deferiprone per capsule.
(§3) Urinary protein and serum creatinine was measured as described above before the administration of deferiprone. Patients were treated by oral ingestion of deferiprone in a range between about 30 mg and about 75 mg deferiprone per kilogram body weight per day 3 times a day. Urinary protein and serum creatinine was obtained 2-6 months after the administration of the iron chelator. […] Total urinary protein and serum creatinine measured before (e.g., pretreatment) and after the administration of deferiprone were compared using a paired t-test and p-value of <0.05 was considered significant.

For assay [2], the system named is patients with kidney disease. Nature of the assay: 24-hr urinary protein in patients with kidney disease before and after treatment with an iron chelator. The format is in vivo, human. As for the experimental part:
Kidney disease was detected in patients by the presence of an abnormal amount of protein in the urine and/or an abnormal renal function. An abnormal amount of protein in urine is an amount of total protein greater than about 0.15 g/24 h measured by an adaptation of pyrogallol red-molydate method described by Fujita, Y., et al., Bunseki Kgaku 32:379-386 (1983), the teachings of which are hereby incorporated by reference in their entirety. Many patients, as part of their routine work up, had received kidney biopsies providing diagnosis of the nature of the kidney disease.
as §1, §2, §3

[3] abbreviates: patients with kidney disease, paired t-test, p<0.05 significant.
[4] abbreviates: individual patients, before vs after 2-6 months oral deferiprone about 30-75 mg/kg per day.
Where [5] appears, read: mean of N=14 patients, p < 0.001.

With `Cc1c(O)c(=O)ccn1C` [deferiprone, 1,2-dimethyl-3-hydroxypyrid-4-one], the “effect on serum creatinine” value in assay [1] (setting [3]) is “significantly decreased; also recorded: decrease”. The “Creatinine After” value in assay [1] (serum, individual patients, 2-6 months after oral deferiprone about 30-75 mg/kg per day) was 0.9 mg/dl (3×) and 1.3 mg/dl and 0.6 mg/dl and 0.5 mg/dl (2×) and 1.4 mg/dl and 0.7 mg/dl and 1.5 mg/dl and 0.8 mg/dl. Besides, the “Creatinine After, Mean” value in assay [1] (serum, mean of N=11 patients, before 1.10) was found to be 0.90 mg/dL. In assay [2] (setting [4]), the “24-Hr Urinary Protein Reduction %” value is 49% and 83% and 38% and 25% and 62% and 99% and 34% and 44% and 80% and 15% and 9% and 2% and 54% and 78%; the “24-Hr Urinary Protein Reduction Grams” value is 1.9 Grams and 1 Grams and 2.5 Grams and 0.7 Grams (2×) and 2.6 Grams and 5.95 Grams and 2 Grams and 2.1 Grams and 0.43 Grams and 0.5 Grams and 0.1 Grams and 1.4 Grams and 2.2 Grams. In assay [2] (individual patients, oral deferiprone about 30-75 mg/kg per day, 3 times a day, measured 2-6 months after administration), the “24-Hr Urinary Protein After” value is 1.5 grams/24 hrs and 0.2 grams/24 hrs and 4 grams/24 hrs and 1.6 grams/24 hrs (2×) and 0.05 grams/24 hrs and 2.8 grams/24 hrs and 2.5 grams/24 hrs and 0.1 grams/24 hrs and 3.8 grams/24 hrs and 4.8 grams/24 hrs and 4.6 grams/24 hrs and 1.2 grams/24 hrs and 0.6 grams/24 hrs. Besides, in assay [2] (mean of N=14 patients, before 3.91, 2-6 months oral deferiprone about 30-75 mg/kg per day, p < 0.001), the “24-Hr Urinary Protein After, Mean” value is listed as 2.13 grams/24 hrs. Further, in assay [2] (setting [5]), the “24-Hr Urinary Protein Reduction %, Mean” value is 48% and the “24-Hr Urinary Protein Reduction Grams, Mean” value was 1.70 Grams. In addition, the “effect on total urinary protein” value in assay [2] (setting [3]) was “significantly decreased; also recorded: decrease”.
